From ChEMBL document CHEMBL4419173, “Small-molecule inhibitors targeting g-protein-coupled rho guanine nucleotide exchange factors” (2014)
Each block holds one compound with its values, some of them ahead of it. Active and inactive are the calls of the source. The rule behind the calls is not given here.

Assays:
[1] = biological target: Rho GEF 12/Transforming protein RhoA (Homo sapiens) (UniProt P61586+Q9NZN5); assay: Inhibition of His6-tagged human LARG PH-DH domain expressed in mouse NIH/3T3 cells assessed as reduction in human full length GST-tagged RhoA (1 to 193 residues) interaction with LARG RhoGEF at 100 uM incubated for 1 hr by Western blot analysis relative to Y16; format: cell-based
MCF7 [2] = assay: Growth inhibition of human MCF7 cells at 5 to 50 uM; format: functional, cell-based
[3] = biological target: T1, RhoGEF 1/Transforming protein RhoA (Homo sapiens) (UniProt P61586+Q92888); assay: Binding affinity to human LARG (765 to 1138 residues) DH-PH module expressed in mouse NIH/3T3 cells assessed as reduction in LARG binding to human full length RhoA (1 to 193 residues) by measuring relative LARG binding level at 30 uM pull-down assay (reference value: 1 No unit); format: cell-based
MCF7 [4] = assay: Inhibition of cell migration of human MCF7 cells at 10 to 50 uM; format: functional, cell-based
Mus musculus [5] = organism: Mus musculus; assay: Inhibition of RhoGEF in mouse NIH/3T3 cells assessed as inhibition of 10% calf serum-induced RhoA-GTP formation by measuring relative RhoA-GTP level at 30 uM incubated for 24 hrs by densitometry (reference value: 1); format: cell-based
MCF7 [6] = assay: Inhibition of RhoGEF in human MCF7 cells derived mammospheres assessed as inhibition of 10% calf serum-induced RhoA-GTP formation by measuring relative RhoA-GTP level at 10 uM incubated for 24 hrs by densitometry (reference value: 1); format: cell-based
MCF7 [7] = assay: Inhibition of RhoGEF in human MCF7 cells derived mammospheres assessed as inhibition of 10% calf serum-induced RhoA-GTP formation by measuring relative RhoA-GTP level incubated for 24 hrs by densitometry (reference value: 1); format: cell-based
[8] = biological target: T1, RhoGEF 1/Transforming protein RhoA (Homo sapiens); assay: Binding affinity to human LARG (765 to 1138 residues) DH-PH module expressed in mouse NIH/3T3 cells assessed as reduction in LARG binding to human full length RhoA (1 to 193 residues) by measuring relative LARG binding level at 50 uM pull-down assay (reference value: 1 No unit); format: cell-based
MCF7 [9] = assay: Inhibition of RhoGEF in human MCF7 cells derived mammospheres assessed as inhibition of 10% calf serum-induced RhoA-GTP formation by measuring relative RhoA-GTP level at 30 uM incubated for 24 hrs by densitometry (reference value: 1); format: cell-based
MCF7 [10] = assay: Inhibition of RhoGEF in human MCF7 cells derived mammospheres assessed as inhibition of RhoA-mediated phospho-MLC formation incubated for 24 hrs by densitometry; format: cell-based
[11] = biological target: T1, RhoGEF 1/Transforming protein RhoA (Homo sapiens); assay: Binding affinity to human LARG (765 to 1138 residues) DH-PH module expressed in mouse NIH/3T3 cells assessed as reduction in LARG binding to human full length RhoA (1 to 193 residues) by measuring relative LARG binding level at 10 uM pull-down assay (reference value: 1 No unit); format: cell-based
MCF7 [12] = assay: Inhibition of RhoGEF in human MCF7 cells derived mammospheres assessed as inhibition of RhoA-mediated phospho-MLC formation at 10 uM incubated for 24 hrs by densitometry; format: cell-based
Mus musculus [13] = organism: Mus musculus; assay: Inhibition of RhoGEF in mouse NIH/3T3 cells assessed as inhibition of 10% calf serum-induced Rac1-GTP formation by measuring relative Rac1-GTP level at 50 uM incubated for 24 hrs by densitometry (reference value: 1); format: cell-based
Mus musculus [14] = organism: Mus musculus; assay: Inhibition of RhoGEF in mouse NIH/3T3 cells assessed as inhibition of 10% calf serum-induced RhoA-GTP formation by measuring relative RhoA-GTP level at 10 uM incubated for 24 hrs by densitometry (reference value: 1); format: cell-based
[15] = biological target: T2, Rho guanine nucleotide exchange factor 12 (Homo sapiens, UniProt Q9NZN5); assay: Inhibition of human LARG (765 to 1138 residues) RhoGEF binding to human full length RhoA (1 to 193 residues)
T2 sequence (Q9NZN5 whole entry, the tested form may be a part): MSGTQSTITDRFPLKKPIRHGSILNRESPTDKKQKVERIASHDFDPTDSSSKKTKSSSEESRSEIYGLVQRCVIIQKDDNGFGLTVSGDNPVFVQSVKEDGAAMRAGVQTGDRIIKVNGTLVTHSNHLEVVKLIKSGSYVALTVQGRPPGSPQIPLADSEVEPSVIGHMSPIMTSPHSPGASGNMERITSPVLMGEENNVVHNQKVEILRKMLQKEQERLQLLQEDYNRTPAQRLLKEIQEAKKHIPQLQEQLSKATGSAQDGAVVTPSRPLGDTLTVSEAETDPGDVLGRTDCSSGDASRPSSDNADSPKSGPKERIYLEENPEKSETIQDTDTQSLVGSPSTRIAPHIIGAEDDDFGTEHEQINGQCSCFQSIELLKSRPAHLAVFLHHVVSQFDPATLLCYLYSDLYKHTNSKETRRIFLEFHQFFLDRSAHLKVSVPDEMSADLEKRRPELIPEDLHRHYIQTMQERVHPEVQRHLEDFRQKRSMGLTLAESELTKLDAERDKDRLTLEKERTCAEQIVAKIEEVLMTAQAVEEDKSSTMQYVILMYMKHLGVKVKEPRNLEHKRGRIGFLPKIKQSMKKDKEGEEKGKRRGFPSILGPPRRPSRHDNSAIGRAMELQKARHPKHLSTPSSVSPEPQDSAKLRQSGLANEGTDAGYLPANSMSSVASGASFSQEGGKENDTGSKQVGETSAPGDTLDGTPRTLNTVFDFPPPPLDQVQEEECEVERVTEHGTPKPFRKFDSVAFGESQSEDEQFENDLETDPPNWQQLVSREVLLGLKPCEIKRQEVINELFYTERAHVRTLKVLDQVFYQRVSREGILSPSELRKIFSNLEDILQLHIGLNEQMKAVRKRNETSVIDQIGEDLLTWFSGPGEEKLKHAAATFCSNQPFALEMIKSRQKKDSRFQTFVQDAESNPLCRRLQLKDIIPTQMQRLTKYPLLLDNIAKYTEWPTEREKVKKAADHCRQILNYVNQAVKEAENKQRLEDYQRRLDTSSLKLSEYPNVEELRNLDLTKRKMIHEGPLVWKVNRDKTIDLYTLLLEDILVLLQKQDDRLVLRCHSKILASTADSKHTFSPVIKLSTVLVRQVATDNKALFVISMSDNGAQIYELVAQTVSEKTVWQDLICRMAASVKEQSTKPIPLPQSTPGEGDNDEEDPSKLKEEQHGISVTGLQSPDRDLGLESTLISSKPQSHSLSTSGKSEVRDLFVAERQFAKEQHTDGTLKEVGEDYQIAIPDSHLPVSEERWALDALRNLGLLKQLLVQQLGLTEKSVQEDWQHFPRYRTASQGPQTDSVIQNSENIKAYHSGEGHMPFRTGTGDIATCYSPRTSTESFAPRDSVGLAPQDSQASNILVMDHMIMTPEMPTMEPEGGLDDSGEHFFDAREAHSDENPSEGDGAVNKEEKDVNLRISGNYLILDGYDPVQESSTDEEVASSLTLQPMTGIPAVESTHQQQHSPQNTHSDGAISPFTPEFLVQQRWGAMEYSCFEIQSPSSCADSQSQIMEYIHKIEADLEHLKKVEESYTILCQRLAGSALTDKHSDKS

[16] = biological target: T1, RhoGEF 1/Transforming protein RhoA (Homo sapiens); assay: Binding affinity to human LARG (765 to 1138 residues) DH-PH module expressed in mouse NIH/3T3 cells assessed as reduction in LARG binding to human full length RhoA (1 to 193 residues) by measuring relative LARG binding level at 5 uM pull-down assay (reference value: 1 No unit); format: cell-based
Mus musculus [17] = organism: Mus musculus; assay: Inhibition of RhoGEF in mouse NIH/3T3 cells assessed as inhibition of 10% calf serum-induced Cdc42-GTP formation by measuring relative Cdc42-GTP level at 50 uM incubated for 24 hrs by densitometry (reference value: 1); format: cell-based
MCF7 [18] = assay: Inhibition of RhoGEF in human MCF7 cells derived mammospheres assessed as inhibition of 10% calf serum-induced RhoA-GTP formation by measuring relative RhoA-GTP level at 5 uM incubated for 24 hrs by densitometry (reference value: 1); format: cell-based
Mus musculus [19] = organism: Mus musculus; assay: Inhibition of RhoGEF in mouse NIH/3T3 cells assessed as inhibition of 10% calf serum-induced RhoA-GTP formation by measuring reduction in RhoA-GTP level at 30 uM incubated for 24 hrs by densitometry relative to control; format: cell-based
MCF7 [20] = assay: Inhibition of cell invasion of human MCF7 cells at 10 to 50 uM by Matrigel-coated transwell based assay; format: functional
MCF7 [21] = assay: Inhibition of RhoGEF in human MCF7 cells derived mammospheres assessed as inhibition of 10% calf serum-induced RhoA-GTP formation at 10 uM incubated for 24 hrs by densitometry relative to control; format: cell-based
Mus musculus [22] = organism: Mus musculus; assay: Inhibition of RhoGEF in mouse NIH/3T3 cells assessed as reduction in 10% calf serum-induced rhoA-mediated actin stress fiber formation at 10 uM by rhodamine-phalloidin staining based assay; format: cell-based
Mus musculus [23] = organism: Mus musculus; assay: Inhibition of RhoGEF in mouse NIH/3T3 cells assessed as inhibition of 10% calf serum-induced RhoA-GTP formation by measuring relative RhoA-GTP level at 50 uM incubated for 24 hrs by densitometry (reference value: 1); format: cell-based
[24] = biological target: T2, Rho guanine nucleotide exchange factor 12; assay: Inhibition of human LARG (765 to 1138 residues) RhoGEF-catalyzed guanine nucleotide-exchange reaction of human full length RhoA (1 to 193 residues) by measuring inhibition of FL-GDP dissociation from RhoA by BODIPY-fluorescein(FL)-GDP nucleotide based assay
[25] = biological target: T2, Rho guanine nucleotide exchange factor 12; assay: Inhibition of human LARG (765 to 1138 residues) RhoGEF-catalyzed guanine nucleotide-exchange reaction of human full length RhoA (1 to 193 residues) by measuring inhibition of TR-GTP association to RhoA by BODIPY-Texas Red(TR)-GTP nucleotide based assay

inhibition [1]: 13.8%
SMILES: COc1cc(/C=C2/C(=O)NN(c3ccccc3)C2=O)cc(Br)c1OCCOc1ccc(C)cc1

inhibition [1]: 6.57%
SMILES: O=C1NN(c2ccccc2)C(=O)/C1=C\C1=NCc2ccccc21

fold change (FC) [3]: 0.45 | fold change (FC) [8]: 0.15 | fold change (FC) [11]: 0.63 | IC50 [15]: 10 µM | fold change (FC) [16]: 0.92
SMILES: N[C@H](Cc1c[nH]c2ccccc12)C(=O)N/N=C/c1ccc2nccnc2c1
growth inhibition (GI) (MCF7 [2]): Active | inhibition (MCF7 [4]): Active | fold change (FC) (Mus musculus [5]): 0.38 | fold change (FC) (MCF7 [6]): 0.65 | inhibition (MCF7 [7]): Dose-dependent effect | fold change (FC) (MCF7 [9]): 0.32 | inhibition (MCF7 [10]): Dose-dependent effect | inhibition (MCF7 [12]): 50% | fold change (FC) (Mus musculus [13]): 0.89 | fold change (FC) (Mus musculus [14]): 0.7 | fold change (FC) (Mus musculus [17]): 0.96 | fold change (FC) (MCF7 [18]): 0.98 | inhibition (Mus musculus [19]): 80% | inhibition (MCF7 [20]): Active | inhibition (MCF7 [21]): 50% | inhibition (Mus musculus [22]): Active | fold change (FC) (Mus musculus [23]): 0.19

inhibition [1]: 7.34%
SMILES: O=C1/C(=C\c2ccccc2OCc2ccccc2)CNN1c1ccc(Br)cc1

inhibition [24]: Dose-dependent effect | inhibition [25]: Dose-dependent effect
SMILES: O=C(O)C1Nc2c(Cl)cc(Cl)cc2C2C=CCC12 (centres undefined)

inhibition [1]: 13%
SMILES: COc1cc(/C=C2/C(=O)NN(c3ccccc3)C2=O)ccc1O

inhibition [1]: 27.1%
SMILES: O=C1NN(c2ccccc2)C(=O)/C1=C/c1ccc(OCc2ccccc2)cc1
